Laboratory results: patent US8637702B2, “Derivatives of N-hydroxybenzamide for treating HIV infections” (Italfarmaco S.p.A., priority 2009, dated 2014)

Columns and labels:
[1] = tested on: HIV-1 expression in ACH-2 cells; test: Induction of the HIV-1 expression in the ACH-2 cell line (p24); format: cell-based; conditions: 24 hours
Description: ACH2 cells were obtained through AIDS Research and Reference Reagent Program, Division of AIDS, National Institute of Allergy and Infectious Diseases, National Institutes of Health, Bethesda, Md. The cells were cultured in flasks, washed in RPMI and resuspended in RPMI/10% FCS at a concentration of 2×10^6 cells/mL. […] After 24 hours of incubation at 37° C./5% CO2, 50 μL of supernatant were removed for the cytotoxicity assay of the lactate dehydrogenase (LDH) and Triton-X-100 (0.5% vol/vol final concentration) were added to each culture. The p24 assays of the lysates were performed immediately.
p24 was measured using specific antibodies immobilized on magnetic beads as previously described [Nold M. F. et al. J. Immunol. […] The levels of p24 for each experiment without HDAC inhibitors were fixed at 1.0 and the increase values by the number of times for each experiment and each analogous were calculated.

[2] = Monzani et al., EUROTOX 2007; cited from earlier work
[3] = target: HDAC4 (Homo sapiens, UniProt P56524); test: Inhibition of histone deacetylase isoforms, HDAC4
Description: (§1) Recombinant human enzymes were acquired from BPS Biosciences (CA, USA). Isoforms of Class I HDAC1, 2, 3; HDAC6, 10 of Class IIb and Class IV HDAC11 were tested using the Fluor-de-Lys fluorogenic synthetic substrate (Enzo Life Sciences, Plymouth Meeting, Pa.). […] Each inhibitor was dissolved in DMSO and then further diluted in an assay buffer. […] The assays were performed by pre-incubating each enzyme with the inhibitors for 15 minutes at 37° C. The reaction was started by adding the substrate at 37° C. and allowed to proceed for 60 minutes. The fluorescent signal was generated by adding 50 μL of a twice concentrated developer solution 2 (Enzo) containing trichostatin A 4 μM.

[4] = target: T1, HDAC10 (Homo sapiens, UniProt Q969S8); test: Inhibition of histone deacetylase isoforms, HDAC10
T1 sequence (Q969S8 1-669): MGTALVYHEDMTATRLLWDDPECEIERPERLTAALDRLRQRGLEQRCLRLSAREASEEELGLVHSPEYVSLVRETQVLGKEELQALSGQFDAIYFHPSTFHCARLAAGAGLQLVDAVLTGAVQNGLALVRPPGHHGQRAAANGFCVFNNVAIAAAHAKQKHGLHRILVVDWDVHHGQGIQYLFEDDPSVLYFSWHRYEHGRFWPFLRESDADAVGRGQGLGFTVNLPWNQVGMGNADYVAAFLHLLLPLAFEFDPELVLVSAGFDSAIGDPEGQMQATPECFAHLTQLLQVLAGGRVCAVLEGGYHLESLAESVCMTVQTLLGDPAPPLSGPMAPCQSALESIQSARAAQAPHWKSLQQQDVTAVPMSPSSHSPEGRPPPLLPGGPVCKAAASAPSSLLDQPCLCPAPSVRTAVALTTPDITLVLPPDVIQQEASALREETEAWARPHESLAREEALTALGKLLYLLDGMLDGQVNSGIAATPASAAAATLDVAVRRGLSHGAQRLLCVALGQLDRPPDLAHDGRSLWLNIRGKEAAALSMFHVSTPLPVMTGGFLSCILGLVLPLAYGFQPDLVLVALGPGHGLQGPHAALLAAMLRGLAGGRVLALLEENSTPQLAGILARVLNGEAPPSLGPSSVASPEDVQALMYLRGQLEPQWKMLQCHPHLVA
Description: as §1

[5] = target: HDAC9 (Homo sapiens, UniProt Q9UKV0); test: Inhibition of histone deacetylase isoforms, HDAC9
Description: as §1

[6] = tested on: micronucleated erythrocytes; conditions: administered to mice, Zolinza package leaflet; cited from earlier work
[7] = tested on: bacteria; conditions: in vitro, Zolinza package leaflet; cited from earlier work
[8] = 400 mg/day, Zolinza package leaflet; cited from earlier work
[9] = tested on: latent HIV reservoir; conditions: combined with HAART, clinical studies; cited from earlier work

Sequence of HDAC4 (P56524 whole entry, canonical isoform): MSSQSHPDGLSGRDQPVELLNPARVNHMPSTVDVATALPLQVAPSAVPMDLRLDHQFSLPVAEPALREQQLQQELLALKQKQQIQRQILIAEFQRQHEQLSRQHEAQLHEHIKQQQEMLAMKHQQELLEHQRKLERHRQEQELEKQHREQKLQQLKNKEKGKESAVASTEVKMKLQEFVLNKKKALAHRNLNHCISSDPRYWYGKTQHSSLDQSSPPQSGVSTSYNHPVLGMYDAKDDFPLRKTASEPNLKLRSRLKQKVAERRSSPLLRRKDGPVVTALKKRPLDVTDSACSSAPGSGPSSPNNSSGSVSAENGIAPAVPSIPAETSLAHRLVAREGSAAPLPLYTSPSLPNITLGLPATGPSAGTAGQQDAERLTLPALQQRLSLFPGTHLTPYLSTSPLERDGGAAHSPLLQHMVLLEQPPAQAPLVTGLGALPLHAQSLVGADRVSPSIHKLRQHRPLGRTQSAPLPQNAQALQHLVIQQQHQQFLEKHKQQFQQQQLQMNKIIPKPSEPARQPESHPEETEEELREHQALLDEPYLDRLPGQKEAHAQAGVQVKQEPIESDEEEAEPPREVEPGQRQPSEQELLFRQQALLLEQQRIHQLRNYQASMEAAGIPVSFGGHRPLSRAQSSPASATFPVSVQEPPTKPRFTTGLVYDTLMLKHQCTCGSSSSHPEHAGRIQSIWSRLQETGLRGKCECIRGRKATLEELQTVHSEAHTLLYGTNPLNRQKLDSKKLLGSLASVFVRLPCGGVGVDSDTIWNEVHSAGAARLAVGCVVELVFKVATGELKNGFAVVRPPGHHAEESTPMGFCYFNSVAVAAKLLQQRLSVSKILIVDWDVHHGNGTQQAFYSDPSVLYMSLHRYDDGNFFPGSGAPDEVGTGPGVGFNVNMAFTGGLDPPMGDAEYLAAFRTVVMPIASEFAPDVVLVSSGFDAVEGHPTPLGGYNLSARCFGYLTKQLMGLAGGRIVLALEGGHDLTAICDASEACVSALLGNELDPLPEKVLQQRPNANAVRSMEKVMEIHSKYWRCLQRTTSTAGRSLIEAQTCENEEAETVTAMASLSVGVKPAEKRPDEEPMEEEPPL
Sequence of HDAC9 (Q9UKV0 whole entry, canonical isoform): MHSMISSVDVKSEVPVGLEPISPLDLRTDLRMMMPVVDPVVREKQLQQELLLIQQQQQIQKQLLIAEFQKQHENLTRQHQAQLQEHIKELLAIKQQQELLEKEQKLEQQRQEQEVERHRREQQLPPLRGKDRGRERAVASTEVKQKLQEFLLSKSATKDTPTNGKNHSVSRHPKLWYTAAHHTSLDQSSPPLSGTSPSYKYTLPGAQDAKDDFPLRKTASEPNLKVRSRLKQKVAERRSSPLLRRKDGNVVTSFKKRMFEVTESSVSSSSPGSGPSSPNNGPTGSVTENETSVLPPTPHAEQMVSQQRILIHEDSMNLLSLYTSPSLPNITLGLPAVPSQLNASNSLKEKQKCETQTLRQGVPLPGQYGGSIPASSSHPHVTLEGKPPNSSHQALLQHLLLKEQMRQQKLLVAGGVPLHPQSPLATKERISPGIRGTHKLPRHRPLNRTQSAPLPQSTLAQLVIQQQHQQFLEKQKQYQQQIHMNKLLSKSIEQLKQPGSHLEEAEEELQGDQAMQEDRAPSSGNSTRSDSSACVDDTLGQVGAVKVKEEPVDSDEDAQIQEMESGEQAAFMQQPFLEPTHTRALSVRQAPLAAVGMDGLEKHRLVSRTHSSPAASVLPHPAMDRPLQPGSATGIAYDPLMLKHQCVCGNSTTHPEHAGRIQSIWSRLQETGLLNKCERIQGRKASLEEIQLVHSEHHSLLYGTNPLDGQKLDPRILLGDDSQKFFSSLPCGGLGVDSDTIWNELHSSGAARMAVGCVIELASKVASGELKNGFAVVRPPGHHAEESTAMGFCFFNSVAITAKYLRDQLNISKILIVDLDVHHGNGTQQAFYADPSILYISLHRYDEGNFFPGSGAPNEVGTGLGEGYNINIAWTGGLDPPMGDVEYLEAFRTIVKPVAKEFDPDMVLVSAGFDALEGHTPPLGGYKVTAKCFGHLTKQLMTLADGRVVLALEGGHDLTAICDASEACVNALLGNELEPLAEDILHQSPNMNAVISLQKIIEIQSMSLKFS

Structure (SMILES): CCN(CC)Cc1ccc2cc(COC(=O)Nc3ccc(C(=O)NO)cc3)ccc2c1.Cl [ITF2357, Diethyl-[6-(4-hydroxycarbamoyl-phenylcarbamoyloxymethyl)-naphtalen-2-yl-methyl]ammonium chloride]
- increase of the number of times in the level of p24 with respect to control ([1]; 31 nM): 1 times
- increase of the number of times in the level of p24 with respect to control ([1]; 63 nM): 1 times
- increase of the number of times in the level of p24 with respect to control ([1]; 125 nM): 2 times
- increase of the number of times in the level of p24 with respect to control ([1]; 250 nM): 15 times
- mutagenicity [2]: non-mutagenic
- IC50 [3]: 724 nM
- IC50 [4]: 351 nM
- IC50 [5]: 518 nM

Structure (SMILES): O=C(CCCCCCC(=O)Nc1ccccc1)NO [SAHA]
- incidence of micronucleated erythrocytes [6]: increases the incidence of micronucleated erythrocytes
- mutagenicity in bacterial back-mutation assays (Ames test) [7]: mutagenic
- adverse effects in patients [8]: numerous, serious adverse effects such as diarrhoea, tiredness, nausea, thrombocytopenia, anorexia and dysgeusia

Structure (SMILES): CCCC(CCC)C(=O)O [VPA, Valproic acid]
- diminution of the latent reservoir [9]: without leading to any considerable diminution of the latent reservoir
